Some test systems named below: ACHN renal; HOP-92 NSCLC; COLO 205 colon; A549 NSCLC; IGROV1 ovarian; NCI-H226 lung; HCT-116 colon.
Common to all, as to assay: NCI-60 cell line screen, 48 h

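Dose response: 5 concentrations. Exposure: 48 h. Format: 96-well plates. Endpoint: linear interpolation; highest concentration if not reached. GI50: concentration for 50% inhibition of growth. TGI: total growth inhibition.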

We go through 12 compounds from PubChem BioAssay (NCI).

As to `Nc1nc(-n2c(-c3ccccc3)nc3c(Br)cc(Br)cc3c2=O)nnc1-c1cccc(Cl)c1Cl`, the GI50 is 12.2 µM in the test with ACHN renal; 38.5 µM in the test on HOP-92 NSCLC; 8.88 µM with COLO 205 colon; 7.41 µM with A549 NSCLC; 12.9 µM in the test with IGROV1 ovarian; 24.1 µM with NCI-H226 lung. In addition, in the test on HCT-116 colon, the GI50 was 2.43 µM. Also, the TGI in the test with ACHN renal was 40.2 µM; with HOP-92 NSCLC, more than 100 µM; in the test on COLO 205 colon, more than 100 µM; in the test with A549 NSCLC it was more than 100 µM; with IGROV1 ovarian it was 45.9 µM; with NCI-H226 lung, more than 100 µM. In the test with HCT-116 colon, this compound came in with a TGI of 7.06 µM.

With `COc1cc(/C=N\NC(=O)CN2CCN(c3cc4c(cc3F)c(=O)c(C(=O)N/N=C/c3cc(OC)c(OC)c(OC)c3)cn4C3CC3)CC2)cc(OC)c1OC`, the GI50 was more than 100 µM with ACHN renal; 0.198 µM in the test on HOP-92 NSCLC; 0.45 µM in the test with COLO 205 colon; more than 24.6 µM with A549 NSCLC; 0.365 µM in the test with IGROV1 ovarian; 0.34 µM in the test with NCI-H226 lung. Also, the GI50 in the test with HCT-116 colon is 0.219 µM. Besides, the TGI in the test on ACHN renal was more than 100 µM; in the test with HOP-92 NSCLC it was 0.674 µM; with COLO 205 colon it was more than 23.2 µM; with A549 NSCLC, more than 100 µM; in the test on IGROV1 ovarian it was 11.8 µM; with NCI-H226 lung, 1.2 µM. For the same compound, the TGI with HCT-116 colon turned out to be 0.5 µM.

Consider `c1ccc(-c2nc(-c3ccccc3SSc3ccccc3-c3nc(-c4ccccc4)nn3-c3ccccc3)n(-c3ccccc3)n2)cc1`, for which the TGI in the test with ACHN renal, in the test with HOP-92 NSCLC, in the test with COLO 205 colon, with A549 NSCLC, in the test with IGROV1 ovarian and in the test with NCI-H226 lung was more than 100 µM each time. In addition, the TGI in the test with HCT-116 colon is more than 100 µM.

On to `Fc1[nH]nc2ccc([C@@H]3Nc4ccc5[nH]ncc5c4[C@H]4C5CCC(C5)[C@@H]34)cc12` (stereo partly drawn), for which the GI50 is 1.52 µM with ACHN renal; 2 µM with HOP-92 NSCLC; 0.801 µM in the test on COLO 205 colon; 1.03 µM in the test with A549 NSCLC; 0.86 µM in the test with IGROV1 ovarian; 3.54 µM in the test on NCI-H226 lung. The GI50 in the test with HCT-116 colon is 0.441 µM. Also, the TGI is 13.6 µM in the test with ACHN renal; 14.2 µM with HOP-92 NSCLC; 4.81 µM with COLO 205 colon; 12.1 µM in the test with A549 NSCLC; 16 µM in the test with IGROV1 ovarian; 25.9 µM with NCI-H226 lung. For the same compound, the TGI with HCT-116 colon was 12.1 µM.

In the case of `Cc1ccsc1C(=S)Nc1ccc(Cl)c(/C=N/OC(C)(C)C)c1`, the TGI in the test on ACHN renal was 75.7 µM; with HOP-92 NSCLC, 48.8 µM; with COLO 205 colon, 33.7 µM; in the test on A549 NSCLC, more than 100 µM; in the test on IGROV1 ovarian, more than 100 µM; with NCI-H226 lung, more than 100 µM. The TGI in the test with HCT-116 colon is more than 100 µM.

`Nc1ccccc1C#C/C=C\C#Cc1ccccc1OC(F)(F)F`: the GI50 in the test with ACHN renal is 9.15 µM; with HOP-92 NSCLC, 9.57 µM; in the test with COLO 205 colon it was 5.19 µM; in the test with A549 NSCLC, 5.99 µM; with IGROV1 ovarian, 5.64 µM; with NCI-H226 lung, 14 µM. Also, the GI50 in the test with HCT-116 colon was 4.45 µM. In addition, the TGI in the test with ACHN renal is 50.4 µM; with HOP-92 NSCLC it was 26.4 µM; with COLO 205 colon, 28 µM; in the test with A549 NSCLC, more than 100 µM; in the test with IGROV1 ovarian, 39.9 µM; in the test with NCI-H226 lung, 40.3 µM. The TGI with HCT-116 colon came out at 16.7 µM.

On to `CCOC(=O)Cn1c(C(F)(F)F)nc2nc(Cl)c(Cl)nc21`, for which the TGI with ACHN renal is more than 67.9 µM; in the test with HOP-92 NSCLC, 70.3 µM; with COLO 205 colon, more than 100 µM; with A549 NSCLC, more than 100 µM; in the test on IGROV1 ovarian, more than 76.6 µM; in the test on NCI-H226 lung, more than 100 µM. Moreover, the TGI in the test with HCT-116 colon was more than 100 µM.

For the compound `C[N+](C)(C)CC(=O)N/N=C(/CC(=O)CC(C1=C(O)c2ccccc2OC1)c1ccccc1)C(=O)Nc1cccc(Cl)c1` (stereo not drawn), the TGI in the test on ACHN renal, with HOP-92 NSCLC, in the test with COLO 205 colon, in the test on A549 NSCLC, with IGROV1 ovarian and in the test with NCI-H226 lung was more than 100 µM in each case. The TGI with HCT-116 colon is more than 100 µM.

Consider `OCc1cc2ccccc2c2c3c(ccc12)OCO3`, for which the GI50 in the test with ACHN renal is 32.1 µM; in the test on HOP-92 NSCLC it was 14.7 µM; with COLO 205 colon, 18.8 µM; in the test with A549 NSCLC, 30.3 µM; in the test on IGROV1 ovarian it was 33.6 µM; with NCI-H226 lung, 23.7 µM. Moreover, in the test on HCT-116 colon, the GI50 is 30.6 µM. For the same compound, the TGI was 141 µM with ACHN renal; 58.2 µM with HOP-92 NSCLC; 37.4 µM with COLO 205 colon; 126 µM with A549 NSCLC; 111 µM in the test on IGROV1 ovarian; 163 µM with NCI-H226 lung. In the test on HCT-116 colon, this compound registered a TGI of 149 µM.

For `OCCN(CCO)c1ncnc2c1ncn2Cc1ccc(CCl)cc1`, the GI50 was 14.9 µM in the test on ACHN renal; 16.4 µM in the test with HOP-92 NSCLC; 18.2 µM in the test with COLO 205 colon; 18.3 µM with A549 NSCLC; 19.7 µM with IGROV1 ovarian; 23.4 µM in the test with NCI-H226 lung. In addition, the GI50 in the test with HCT-116 colon is 14 µM. The TGI with ACHN renal was found to be 28.5 µM; in the test with HOP-92 NSCLC, 31.7 µM; in the test on COLO 205 colon, 46.8 µM; in the test with A549 NSCLC, 53.7 µM; with IGROV1 ovarian, 40.3 µM; in the test on NCI-H226 lung, 58 µM. Moreover, the TGI with HCT-116 colon came out at 33.8 µM.

With `CCN(CC)N=Nc1c(C(N)=O)n[nH]c1C`, the TGI in the test with ACHN renal was more than 100 µM; in the test on HOP-92 NSCLC it was 87.8 µM; with COLO 205 colon it was more than 100 µM; in the test on A549 NSCLC it was more than 100 µM; with IGROV1 ovarian, more than 100 µM; with NCI-H226 lung, more than 100 µM. The TGI with HCT-116 colon was more than 100 µM.

Consider `Cc1nc2sccn2c1-c1csc(Nc2ccccc2Cl)n1`, for which the GI50 is 4.52 µM with ACHN renal; 0.798 µM in the test on HOP-92 NSCLC; 5.87 µM in the test on COLO 205 colon; 2.98 µM with A549 NSCLC; 5.45 µM with IGROV1 ovarian; 3.38 µM in the test on NCI-H226 lung. Besides, the GI50 in the test on HCT-116 colon was 3.3 µM. Moreover, the TGI in the test with ACHN renal amounted to 62.3 µM; in the test on HOP-92 NSCLC, 7.08 µM; in the test on COLO 205 colon it was 21 µM; with A549 NSCLC, 44.4 µM; with IGROV1 ovarian, 50 µM; in the test with NCI-H226 lung, 45.1 µM. In addition, in the test on HCT-116 colon, the TGI worked out at 16.2 µM.
